Results reported in patent US10407467B2, “Polymyxin derivatives and their use in combination therapy together with different antibiotics” (priority 2013, dated 2019).

What was measured:
Escherichia coli [1] = assay: MIC, compound in combination with a second agent (broth microdilution); format: cell-based
Outline: (§1)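 MIC values express combined concentration of test compound plus partner agent such as rifampicin, mixed at equal mass (1:1 w/w, salt-form weight). Direct colony suspensions at 0.5 McFarland, up to four strains per species, tested in duplicate; >2-fold disagreement invalid, otherwise lower value or mode of repeats reported.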

Pseudomonas aeruginosa [2] = assay: as above; format: cell-based
Outline: as §1

Acinetobacter baumannii [3] = assay: as above; format: cell-based
Outline: as §1

Klebsiella pneumoniae [4] = assay: as above; format: cell-based
Outline: as §1

Escherichia coli [5] = assay: MIC, sole activity (no second agent); format: cell-based
Outline: (§2)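 Up to four strains per species were tested in cation-adjusted Mueller-Hinton broth, with inoculum made by direct colony suspension from 18-24 hour Mueller-Hinton agar plates, adjusted to 0.5 McFarland. Duplicates differing by under 2-fold gave the lower value; greater spread voided the run. Values are relative to Polymyxin B.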

Pseudomonas aeruginosa [6] = assay: MIC, sole activity (no second agent); format: cell-based
Outline: as §2

Acinetobacter baumannii [7] = assay: MIC, sole activity (no second agent); format: cell-based; details: Second Agent none (Table 7B, by row order)
Outline: as §2

Klebsiella pneumoniae [8] = assay: MIC, sole activity (no second agent); format: cell-based
Outline: as §2

HK-2 cell line = assay: In vitro renal cell toxicity assay (resazurin reduction); format: cell-based, human; details: HK-2 cells, 24 h, resazurin reduction; mean values of up to 6 independent studies
[9] = tested on: Klebsiella pneumoniae ATCC10031; details: Total daily dosage 10 mg/Kg (sulfate salt), subcutaneous BID
Protocol: At 1 h, the CFU count was determined from 5 mice and the remaining mice (five per group) were treated with a subcutaneous injection of the drug at +1 and 6 hr post-infection.
Twenty-four hours after infection, the mice were euthanized humanely. The muscle of the right thigh of each animal was harvested, homogenized, serially diluted and plated on Brain Heart Infusion agar+0.5% charcoal (w/v) for CFU determination. Decrease of the total CFU of right thigh as compared to control counts at 24 h post-infection was determined for each dose group.

[10] = 1:1 combination with Ciprofloxacin, total drug concentration
[11] = 1:1 combination with Tigecycline, total drug concentration
[12] = 1:1 combination with Vancomycin, total drug concentration
[13] = 1:1 combination with Ciprofloxacin (by row order), total drug concentration
[14] = Ratio of Compound to Rifampicin 1:1, total drug concentration
[15] = Ratio of Compound to Rifampicin 1:3, total drug concentration
[16] = Ratio of Compound to Rifampicin 3:1, total drug concentration
[17] = Second Agent none (Table 7B, by row order)

Colistin [reference compound]
MIC E. coli ATCC25922 (Escherichia coli [1]; 1:1 (wt:wt) combination with Rifampicin, MIC = total drug concentration, strain ATCC25922): 0.25 micrograms/mL
MIC E. coli NCTC9001 (Escherichia coli [1]; 1:1 (wt:wt) combination with Rifampicin, MIC = total drug concentration, strain NCTC9001): 0.25 micrograms/mL
MIC E. coli ATCC25922 (Escherichia coli [1]; [10]): ≤0.06 micrograms/mL
MIC E. coli CCUG 59342 (Escherichia coli [1]; [10]): 1 micrograms/mL
MIC E. coli NCTC9001 (Escherichia coli [1]; [10]): ≤0.06 micrograms/mL
MIC E. coli NCTC9001 (Escherichia coli [1]; [11]): 4 micrograms/mL
MIC E. coli NCTC9001 (Escherichia coli [1]; [12]): 4 microgram/mL
MIC E. coli NCTC9001 (Escherichia coli [1]; E. coli NCTC9001, 1:1 combination with Meropenem, total drug concentration): 0.25 micrograms/mL
MIC P. aeruginosa ATCC 27853 (Pseudomonas aeruginosa [2]; 1:1 (wt:wt) combination with Rifampicin, MIC = total drug concentration, strain ATCC 27853): 0.25 micrograms/mL
MIC P. aeruginosa ATCC CRM-9027 (Pseudomonas aeruginosa [2]; 1:1 (wt:wt) combination with Rifampicin, MIC = total drug concentration, strain ATCC CRM-9027): 1 micrograms/mL
MIC P. aeruginosa ATCC-47 (Pseudomonas aeruginosa [2]; 1:1 (wt:wt) combination with Rifampicin, MIC = total drug concentration, strain ATCC-47): 2 micrograms/mL
MIC P. aeruginosa CCUG 59626 (Pseudomonas aeruginosa [2]; 1:1 (wt:wt) combination with Rifampicin, MIC = total drug concentration, strain CCUG 59626): 0.5 micrograms/mL
MIC P. aeruginosa ATCC 27853 (Pseudomonas aeruginosa [2]; [13]): 0.125 micrograms/mL
MIC P. aeruginosa CCUG 59626 (Pseudomonas aeruginosa [2]; [13]): 1 micrograms/mL
MIC P. aeruginosa CCUG 59626 (Pseudomonas aeruginosa [2]; [11]): 1 micrograms/mL
MIC P. aeruginosa CCUG 59626 (Pseudomonas aeruginosa [2]; P. aeruginosa CCUG 59626, 1:1 combination with Meropenem, total drug concentration): 1 micrograms/mL
MIC A. baumannii ATCC BAA-747 (Acinetobacter baumannii [3]; 1:1 (wt:wt) combination with Rifampicin, MIC = total drug concentration, strain ATCC BAA-747): 0.25 micrograms/mL
MIC A. baumannii CCUG57249 (Acinetobacter baumannii [3]; 1:1 (wt:wt) combination with Rifampicin, MIC = total drug concentration, strain CCUG57249): 0.25 micrograms/mL
MIC A. baumannii NCTC 13423 (Acinetobacter baumannii [3]; 1:1 (wt:wt) combination with Rifampicin, MIC = total drug concentration, strain NCTC 13423): 0.125 micrograms/mL
MIC A. baumannii NCTC 13424 (Acinetobacter baumannii [3]; 1:1 (wt:wt) combination with Rifampicin, MIC = total drug concentration, strain NCTC 13424): 0.25 micrograms/mL
MIC A. baumannii NCTC 13424 (Acinetobacter baumannii [3]; [13]): 0.5 micrograms/mL
MIC K. pneumoniae ATCC 4352 (Klebsiella pneumoniae [4]; 1:1 (wt:wt) combination with Rifampicin, MIC = total drug concentration, strain ATCC 4352): 0.5 micrograms/mL
MIC K. pneumoniae ATCC-BAA-2146 (Klebsiella pneumoniae [4]; 1:1 (wt:wt) combination with Rifampicin, MIC = total drug concentration, strain ATCC-BAA-2146): 1 micrograms/mL
MIC K. pneumoniae CCUG-59348 (Klebsiella pneumoniae [4]; 1:1 (wt:wt) combination with Rifampicin, MIC = total drug concentration, strain CCUG-59348): 1 micrograms/mL
MIC K. pneumoniae NCTC 13438 (Klebsiella pneumoniae [4]; 1:1 (wt:wt) combination with Rifampicin, MIC = total drug concentration, strain NCTC 13438): 0.5 micrograms/mL
MIC K. pneumoniae ATCC 4352 (Klebsiella pneumoniae [4]; [13]): ≤0.06 micrograms/mL
MIC K. pneumoniae ATCC BAA-1706 (Klebsiella pneumoniae [4]; [13]): 1 micrograms/mL
MIC K. pneumoniae CCUG 59348 (Klebsiella pneumoniae [4]; [10]): 32 micrograms/mL
MIC K. pneumoniae NCTC 13442 (Klebsiella pneumoniae [4]; [10]): 1 micrograms/mL
MIC K. pneumoniae CCUG 59348 (Klebsiella pneumoniae [4]; [11]): >32 micrograms/mL
MIC K. pneumoniae NCTC 13442 (Klebsiella pneumoniae [4]; [11]): 4 micrograms/mL
MIC K. pneumoniae CCUG 59348 (Klebsiella pneumoniae [4]; [12]): >32 microgram/mL
MIC K. pneumoniae CCUG 59626 (Klebsiella pneumoniae [4]; [12]): 2 microgram/mL
MIC K. pneumoniae NCTC 13442 (Klebsiella pneumoniae [4]; [12]): 8 microgram/mL
MIC K. pneumoniae ATCC BAA-1706 (Klebsiella pneumoniae [4]; K. pneumoniae ATCC BAA-1706, 1:1 combination with Meropenem, total drug concentration): 4 micrograms/mL
MIC K. pneumoniae CCUG 59348 (Klebsiella pneumoniae [4]; K. pneumoniae CCUG 59348, 1:1 combination with Meropenem, total drug concentration): >32 micrograms/mL
MIC K. pneumoniae NCTC 13442 (Klebsiella pneumoniae [4]; K. pneumoniae NCTC 13442, 1:1 combination with Meropenem, total drug concentration): 4 micrograms/mL
MIC K. pneumoniae ATCC-BAA-2146 (Klebsiella pneumoniae [4]; [14]): 1 micrograms/mL
MIC K. pneumoniae CCUG-59348 (Klebsiella pneumoniae [4]; [14]): 2 micrograms/mL
MIC K. pneumoniae NCTC 13438 (Klebsiella pneumoniae [4]; [14]): 2 micrograms/mL
MIC K. pneumoniae ATCC-BAA-2146 (Klebsiella pneumoniae [4]; [15]): 4 micrograms/mL
MIC K. pneumoniae CCUG-59348 (Klebsiella pneumoniae [4]; [15]): 4 micrograms/mL
MIC K. pneumoniae NCTC 13438 (Klebsiella pneumoniae [4]; [15]): 2 micrograms/mL
MIC K. pneumoniae ATCC-BAA-2146 (Klebsiella pneumoniae [4]; [16]): 1 micrograms/mL
MIC K. pneumoniae CCUG-59348 (Klebsiella pneumoniae [4]; [16]): 1 micrograms/mL
MIC K. pneumoniae NCTC 13438 (Klebsiella pneumoniae [4]; [16]): 1 micrograms/mL
MIC E. coli NCTC9001 (Escherichia coli [5]; E. coli NCTC9001, second agent none): 1 micrograms/mL
MIC E. coli NCTC9001 (Escherichia coli [5]; Second Agent none (Table 7A)): 1 microgram/mL
MIC E. coli ATCC25922 (Escherichia coli [5]; Second Agent none (Table 7B)): 1 micrograms/mL
MIC E. coli CCUG 59342 (Escherichia coli [5]; Second Agent none (Table 7B)): 0.5 micrograms/mL
MIC E. coli NCTC9001 (Escherichia coli [5]; Second Agent none (Table 7B)): 2 micrograms/mL
MIC E. coli NCTC9001 (Escherichia coli [5]; Second Agent none (Table 7C)): 1 micrograms/mL
MIC P. aeruginosa CCUG 59626 (Pseudomonas aeruginosa [6]; P. aeruginosa CCUG 59626, second agent none): 0.5 micrograms/mL
MIC P. aeruginosa ATCC 27853 (Pseudomonas aeruginosa [6]; [17]): 0.25 micrograms/mL
MIC P. aeruginosa CCUG 59626 (Pseudomonas aeruginosa [6]; [17]): 0.5 micrograms/mL
MIC P. aeruginosa CCUG 59626 (Pseudomonas aeruginosa [6]; Second Agent none (Table 7C)): 0.5 micrograms/mL
MIC A. baumannii NCTC 13424 (Acinetobacter baumannii [7]): 0.5 micrograms/mL
MIC K. pneumoniae ATCC BAA-1706 (Klebsiella pneumoniae [8]; K. pneumoniae ATCC BAA-1706, second agent none): 2 micrograms/mL
MIC K. pneumoniae CCUG 59348 (Klebsiella pneumoniae [8]; K. pneumoniae CCUG 59348, second agent none): 32 micrograms/mL
MIC K. pneumoniae NCTC 13442 (Klebsiella pneumoniae [8]; K. pneumoniae NCTC 13442, second agent none): 2 micrograms/mL
MIC K. pneumoniae CCUG 59348 (Klebsiella pneumoniae [8]; Second Agent none (Table 7A)): 32 microgram/mL
MIC K. pneumoniae CCUG 59626 (Klebsiella pneumoniae [8]; Second Agent none (Table 7A)): 0.5 microgram/mL
MIC K. pneumoniae NCTC 13442 (Klebsiella pneumoniae [8]; Second Agent none (Table 7A)): 2 microgram/mL
MIC K. pneumoniae CCUG 59348 (Klebsiella pneumoniae [8]; Second Agent none (Table 7B)): 32 micrograms/mL
MIC K. pneumoniae NCTC 13442 (Klebsiella pneumoniae [8]; Second Agent none (Table 7B)): 2 micrograms/mL
MIC K. pneumoniae ATCC 4352 (Klebsiella pneumoniae [8]; [17]): 0.5 micrograms/mL
MIC K. pneumoniae ATCC BAA-1706 (Klebsiella pneumoniae [8]; [17]): 2 micrograms/mL
MIC K. pneumoniae CCUG 59348 (Klebsiella pneumoniae [8]; Second Agent none (Table 7C)): 32 micrograms/mL
MIC K. pneumoniae NCTC 13442 (Klebsiella pneumoniae [8]; Second Agent none (Table 7C)): 2 micrograms/mL
IC50 HK-2 cells (HK-2 cell line): 28 µg/mL
Mean log10 CFU reduction vs. control [9]: 2.60 log10 CFU
